Laboratory results published in patent US8772323B2, “Benzoxazole- and tetrahydrobenzoxazole-substituted pyridazinones as GPR119 agonists” (Boehringer Ingelheim International GmbH, priority 2010, dated 2014).
pEC50: −log10 of the molar value.

Biological target: human GPR119 (Homo sapiens (Human), UniProt Q8TDV5)
Test: AlphaScreen cAMP assay in Min-6/hGPR119 cells (GPR119 activation, intracellular cAMP)
Type: cell-based
Details: MIN6 cells stably transfected with human GPR119; 45 minutes' incubation at RT; AlphaScreen cAMP Assay Kit
Outline: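 cAMP quantified by AlphaScreen after 45 min room-temperature compound exposure in HEPES/bicarbonate buffer, pH 7.4, containing 0.5 mM IBMX, 0.1% BSA and 1% DMSO final. Cells were Min-6 stably transfected with human GPR119, seeded 24 h beforehand.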

human GPR119, sequence (Q8TDV5 whole entry): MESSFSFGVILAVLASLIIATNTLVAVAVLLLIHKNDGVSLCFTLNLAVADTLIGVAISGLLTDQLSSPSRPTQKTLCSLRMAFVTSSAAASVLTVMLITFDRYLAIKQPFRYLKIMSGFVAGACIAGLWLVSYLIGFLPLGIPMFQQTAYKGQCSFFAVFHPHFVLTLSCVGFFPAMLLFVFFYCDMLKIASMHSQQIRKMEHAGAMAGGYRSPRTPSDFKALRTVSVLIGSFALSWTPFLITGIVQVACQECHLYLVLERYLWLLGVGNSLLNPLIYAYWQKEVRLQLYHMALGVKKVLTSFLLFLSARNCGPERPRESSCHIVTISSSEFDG

Row | pEC50 | Structure (SMILES)
1 | 7.08 | CCC1CC(=O)NN=C1c1ccc2nc(-c3ccc(OCCN4CC(C)OC(C)C4)cc3)oc2c1 (centres unmarked) [Example 220, 6-(2-{4-[2-(2,6-dimethyl-morpholin-4-yl)-ethoxy]-phenyl}-benzoxazol-6-yl)-5-ethyl-4,5-dihydro-2H-pyridazin-3-one]
2 | 6.65 | CCC1CC(=O)NN=C1c1ccc2nc(-c3ccc(OCc4nc(C(C)C)no4)cc3)oc2c1 (centres unmarked) [Example 50, 5-ethyl-6-{2-[4-(3-isopropyl-[1,2,4]oxadiazol-5-ylmethoxy)-phenyl]-benzoxazol-6-yl}-4,5-dihydro-2H-pyridazin-3-one]
3 | 5.92 | CCC1CC(=O)NN=C1c1ccc2nc(-c3ccc(OC(F)(F)F)cc3)oc2c1 (centres unmarked) [Example 103, 5-ethyl-6-[2-(4-trifluoromethoxy-phenyl)-benzoxazol-6-yl]-4,5-dihydro-2H-pyridazin-3-one]
4 | 6.84 | CCC1CC(=O)NN=C1c1ccc2nc(-c3ccc(OCC4CCCCC4)cc3)oc2c1 (centres unmarked) [Example 54, 6-[2-(4-cyclohexylmethoxy-phenyl)-benzoxazol-6-yl]-5-ethyl-4,5-dihydro-2H-pyridazin-3-one]
5 | 5.14 | Cc1cc(=O)[nH]nc1-c1ccc2nc(-c3ccc(C(=O)O)cc3)oc2c1 [Example 255, 4-[6-(4-methyl-6-oxo-1,6-dihydro-pyridazin-3-yl)-benzoxazol-2-yl]-benzoic acid]
6 | 6.10 | C[C@H]1CC(c2ccc3nc(-c4ccccc4)oc3c2)=NNC1=O [Example 2, (S)-4-methyl-6-(2-phenyl-benzoxazol-6-yl)-4,5-dihydro-2H-pyridazin-3-one]
7 | 6.85 | CCC1CC(=O)NN=C1c1ccc2nc(-c3ccc(OC)cc3F)oc2c1 (centres unmarked) [Example 91, 5-ethyl-6-[2-(2-fluoro-4-methoxy-phenyl)-benzoxazol-6-yl]-4,5-dihydro-2H-pyridazin-3-one]
8 | 6.50 | O=C1CCC(c2ccc3nc(-c4ccccc4)oc3c2)=NN1 [Example 16, 6-(2-phenyl-benzoxazol-6-yl)-4,5-dihydro-2H-pyridazin-3-one]
9 | 6.12 | COC(=O)c1ccc(-c2nc3ccc(C4=NNC(=O)CC4C)cc3o2)cc1 (centres unmarked) [Example 90, methyl 4-[6-(4-methyl-6-oxo-1,4,5,6-tetrahydro-pyridazin-3-yl)-benzoxazol-2-yl]-benzoate]
10 | 6.82 | O=C1NN=C(c2ccc3nc(-c4ccc(F)cc4)oc3c2)C2CC12 (centres unmarked) [Example 18, 5-[2-(4-fluoro-phenyl)-benzoxazol-6-yl]-3,4-diaza-bicyclo[4.1.0]hept-4-en-2-one]
11 | 5.97 | CCC1CC(=O)NN=C1c1ccc2nc(-c3ccc(OCC(=O)NC)cc3)oc2c1 (centres unmarked) [Example 43, 2-{4-[6-(4-ethyl-6-oxo-1,4,5,6-tetrahydro-pyridazin-3-yl)-benzoxazol-2-yl]-phenoxy}-N-methyl-acetamide]
12 | < 5.00 | CCCCC1CC(c2ccc3nc(-c4cccs4)oc3c2)=NNC1=O (centres unmarked) [Example 140, 4-butyl-6-(2-thiophen-2-yl-benzoxazol-6-yl)-4,5-dihydro-2H-pyridazin-3-one]
13 | 6.90 | CCC[C@H]1C(=O)NN=C(c2ccc3nc(-c4cc(C)oc4C)oc3c2)[C@@H]1C (relative stereo) [Example 189, trans-6-[2-(2,5-dimethyl-furan-3-yl)-benzoxazol-6-yl]-5-methyl-4-propyl-4,5-dihydro-2H-pyridazin-3-one]
14 | 7.57 | CC[C@H]1OC(=O)NN=C1N1CCc2nc(-c3ccccc3)oc2C1 [Example 206, (R)-6-ethyl-5-(2-phenyl-6,7-dihydro-4H-oxazolo[5,4-c]pyridin-5-yl)-3,6-dihydro-[1.3.4]oxadiazin-2-one]
15 | 6.85 | CCC[C@H]1C(=O)NN=C(c2ccc3nc(-c4ccc(Cl)cc4)oc3c2)[C@@H]1C (relative stereo) [Example 185, trans-6-[2-(4-chloro-phenyl)-benzoxazol-6-yl]-5-methyl-4-propyl-4,5-dihydro-2H-pyridazin-3-one]
16 | 6.71 | CC1CC(=O)NN=C1c1ccc2nc(-c3cccc(OCc4ccccc4)c3)oc2c1 (centres unmarked) [Example 34, 6-[2-(3-benzyloxy-phenyl)-benzoxazol-6-yl]-5-methyl-4,5-dihydro-2H-pyridazin-3-one]
17 | 6.63 | CCC1CC(=O)NN=C1c1ccc2nc(-c3ccc(OCCN4CCOCC4)cc3)oc2c1 (centres unmarked) [Example 64, 5-ethyl-6-{2-[4-(2-morpholin-4-yl-ethoxy)-phenyl]-benzoxazol-6-yl}-4,5-dihydro-2H-pyridazin-3-one]
18 | 6.09 | O=C1NN=C(C2CCc3nc(-c4ccccc4)oc3C2)C2CC12 (centres unmarked) [Example 130, 5-(2-phenyl-4,5,6,7-tetrahydro-benzoxazol-6-yl)-3,4-diaza-bicyclo[4.1.0]hept-4-en-2-one]
19 | 6.71 | CCC1CC(=O)NN=C1c1ccc2nc(-c3ccc(C)s3)oc2c1 (centres unmarked) [Example 101, 5-ethyl-6-[2-(5-methyl-thiophen-2-yl)-benzoxazol-6-yl]-4,5-dihydro-2H-pyridazin-3-one]
20 | 6.51 | CCC1CC(=O)NN=C1c1ccc2nc(-c3ccc(OCC(C)N4CCCC4)cc3)oc2c1 (centres unmarked) [Example 209, 5-ethyl-6-{2-[4-(2-pyrrolidin-1-yl-propoxy)-phenyl]-benzoxazol-6-yl}-4,5-dihydro-2H-pyridazin-3-one]
21 | 5.52 | CCC1CC(=O)NN=C1c1ccc2nc(-c3cccc(OCCN4CCCC4)c3)oc2c1 (centres unmarked) [Example 201, 5-ethyl-6-{2-[3-(2-pyrrolidin-1-yl-ethoxy)-phenyl]-benzoxazol-6-yl}-4.5-dihydro-2H-pyridazin-3-one]
22 | 6.91 | CCC1CC(=O)NN=C1c1ccc2nc(-c3ccc(OCCN(CC(C)C)CC(C)C)cc3)oc2c1 (centres unmarked) [Example 160, 6-{2-[4-(2-diisobulylamino-ethoxy)-phenyl]-benzoxazol-6-yl}-5-ethyl-4,5-dihydro-2H-pyridazin-3-one]
23 | 5.70 | O=C1NN=C(c2ccc3nc(Cc4ccccc4)oc3c2)C2CC12 (centres unmarked) [Example 136, 5-(2-benzyl-benzoxazol-6-yl)-3,4-diaza-bicyclo[4.1.0]hept-4-en-2-one]
24 | 6.40 | O=C1NCC(c2ccc3nc(-c4ccccc4)oc3c2)=NN1 [Example 143, 6-(2-phenyl-benzoxazol-6-yl)-4,5-dihydro-2H-[1,2,4]triazin-3-one]
25 | 6.27 | CC1NC(=O)NN=C1c1ccc2nc(-c3ccccc3)oc2c1 (centres unmarked) [Example 142, 5-methyl-6-(2-phenyl-benzoxazol-6-yl)-4,5-dihydro-2H-[1,2,4]triazin-3-one]
26 | 6.21 | CCC1CC(=O)NN=C1c1ccc2nc(-c3ccc(OCCN4CCCC4)cc3)oc2c1 (centres unmarked) [Example 159, 5-ethyl-6-{2-[4-(2-pyrrolidin-1-yl-ethoxy)-phenyl]-benzoxazol-6-yl}-4.5-dihydro-2H-pyridazin-3-one]
27 | 5.97 | CCC1CC(=O)NN=C1c1ccc2nc(-c3cccc(OCCCN4CCCCC4)c3)oc2c1 (centres unmarked) [Example 152, 5-ethyl-6-{2-[3-(3-piperidin-1-yl-propoxy)-phenyl]-benzoxazol-6-yl}-4,5-dihydro-2H-pyridazin-3-one]
28 | 7.09 | C[C@@H]1CC(=O)NN=C1c1ccc2nc(-c3ccccc3)oc2c1 [Example 3, (R)-5-methyl-6-(2-phenyl-benzoxazol-6-yl)-4,5-dihydro-2H-pyridazin-3-one]
29 | 6.08 | CCC[C@H]1C(=O)NN=C(c2ccc3nc(-c4ccc(OCc5ccccc5)cc4)oc3c2)[C@H]1C (relative stereo) [Example 199, cis-6-[2-(4-benzoxy-phenyl)-benzoxazol-6-yl]-5-methyl-4-propyl-4,5-dihydro-2H-pyridazin-3-one]
